Literature values, collected in patent publication US9579322B2, “Methods for treating neurologic disorders” (EIP Pharma, LLC, priority 2014, dated 2017).

Details: animals; cited from earlier work

**Q.** With `NC(=O)c1ccc(N(C(N)=O)c2c(F)cccc2F)nc1-c1ccc(F)cc1F` [VX-702] as the compound, how does the “blood brain barrier penetration” value read?
**A.** non-blood-brain-barrier-penetrant
